Test system: slow wave oscillations in the scalp electroencephalogram
Description: Multiple electrodes, including Magnetic Resonance (hereinafter “MR”) compatible 32 channel electroencephalography (hereinafter “EEG”) caps (BrainCap MR, Easycap GmbH, Herrsching, Germany) are used in the illustrated example for EEG acquisition.
Amplifiers are connected in the illustrated example using MR-safe fibre optic cables to a universal serial bus (USB) adaptor and then to a laptop computer (or other recording and EEG processing medium), which includes the processor 18 and the database 19. The laptop simultaneously records the timings of fMRI volumes (gradient onset markers), stimuli and button presses. For the paradigm in FIG. 5, samples of the electrical signals are acquired at 5000 Hz and initially referenced to channel CPz. The amplification hardware imposes a highpass filter of 0.1 Hz and a lowpass filter of 250 Hz on acquisition. The acquisition software applies a highpass filter of 0.5 Hz and a lowpass filter of 70 Hz as well as a notch filter of 50 Hz. […]
For time-frequency analysis, the frequency power spectrum over time within the 0.5-30 Hz range is calculated using a multitaper spectral analysis (using Chronux®) with window size=3 s and step size=4s. Phasic changes in EEG absolute and relative power in the specific frequency bands of interest, i.e. beta (15-30 Hz), alpha (9-14 Hz), theta (4-8 Hz) and slow wave (0.5-1.5 Hz) bands, are calculated. […]

CC(C)c1cccc(C(C)C)c1O [propofol]
peak absolute power of slow wave oscillations (0.5-1.5 Hz band), range between subjects (16 subjects, gradual propofol administration, peak propofol level 4.0 mcg ml−1, scalp EEG): 10.84-83.78 μV2
activity of slow wave oscillations in the scalp electroencephalogram with increasing doses (after the human has lost verbal responsiveness, increasing doses of propofol): reaches a maximum or saturation point
